# Assay: Compatibility study of sodium picosulfate with citric acid
# Assay type: physicochemical
# Details: produced a wet mass with high known impurities
# Text: As sodium picosulfate is having sensitivity towards an acidic nature ingredient, there is a need to formulate the composition of sodium picosulfate not in direct contact with the citric acid.
smiles,measurement,value
O=S(=O)(O)Oc1ccc(C(c2ccc(OS(=O)(=O)O)cc2)c2ccccn2)cc1 [sodium picosulfate],Compatibility / stability with citric acid,not compatible or stable with citric acid physically and chemically
